Laboratory results as given in patent US20060079447A1, “Stabilized A-beta protofibrillar aggregates” (priority 2004, published 2006).
pEC50: −log10 of the molar value. Structures can show the parent of a compound that is named as a salt. Where two headings read alike, the source gives them in different places.

Experiments:
[1] = biological target: T1, Aβ(1-40) fibrils / biotinyl-Aβ(1-40) (Homo sapiens, UniProt P05067); assay: Microplate Aβ(1-40) elongation screening assay, LOPAC library; assay type: biochemical; settings: for Initial stimulation observed: original LOPAC screen, deposition of biotinyl-Aβ(1-40) on immobilized fibrils
T1 construct: purchased Keck Biotechnology Center at Yale University
Protocol: Microtiterplate Elongation and Screening Assays. The Aβ(1-40) microplate elongation assay has been described (12). For screening the compound library, plates were coated with 100 ng Aβ(1-40) fibrils and washed. The assay was initiated by adding to each well, in order, 80 μl assay buffer [PBSA (phosphate-buffered saline containing 0.05% (w/v) sodium azide) containing 0.05% Tween 20], 10 μl of a 1 mM solution of test compound in DMSO, and 10 μl 100 nM biotinyl-Aβ in assay buffer. Plates were incubated 30 mins at 37° C., then washed and the signal developed as described using a streptavidin-europium linked fluorescence assay (12, 13). Each microplate collection of compounds was assayed in triplicate, and results reported as % inhibition compared to control wells lacking test compounds.
We screened a small library of 640 compounds, the LOPAC library (Sigma), using a microplate-based Aβ elongation assay. In this assay, plastic wells containing immobilized fibrils are incubated with a biotin-tagged monomer in the presence or absence of potential modifiers (13, 18). We found a number of compounds with potent abilities to enhance deposition of the biotin-tagged Aβ(1-40) (FIG. 1). Seven of the compounds were selected for further analysis:—amiloride HCl, phenamil methane sulfonate, naftopidil dihydrochloride, NPC 15437 dihydrochloride, calmidazolium chloride (R24571), 5-(nonoxyl)-tryptamine hydrogen oxalate, and L-α-methyl DOPA. The compounds have a wide variety of structures and biochemical properties. The structures of these seven compounds are shown in FIG. 9, along with the percent stimulation observed in the experiments.
We characterized the activity of CLC in the microplate assay in more detail.

Aβ = biological target: T2, Aβ (Homo sapiens, UniProt P05067); assay: Secondary screening: aggregate formation in the absence of seeding Aβ amyloid fibrils; assay type: biochemical
T2 construct: purchased Keck Biotechnology Center at Yale University
Excerpt: Four compounds—calmidazolium chloride, NPC 15437, phenamil methane sulfonate, and amiloride HCl were chosen for secondary screening, e.g., assaying for formation of stabilized Aβ protofibrillar aggregates in the absence of seeding Aβ amyloid fibrils. All four compounds to be retested were purchased from Sigma.

Aβ(1-40) = biological target: T3, Aβ(1-40) (Homo sapiens, UniProt P05067); assay: Solution phase aggregation assay (ThT fluorescence, HPLC of centrifugation supernatants); assay type: biochemical
T3 construct: purchased Keck Biotechnology Center at Yale University
Protocol: Aβ(1-40) peptides were disaggregated just prior to use, as described previously (12, 14). Peptides (50 μM in fibril formation reactions, approximately 30 μM in CLC aggregation reactions) were incubated in […] at 37° C. Reaction progress was followed by ThT fluorescence and/or quantitative HPLC on centrifugation (30 mins, 315,000×g) supernatants of reaction aliquots (12, 15). The Cr value is the concentration of Aβ in solution when this value stops changing with time. For amyloid fibril growth, this value represents a position of dynamic equilibrium and is the reciprocal of the growth equilibrium constant for the amyloid fibrils (15); for the CLC-induced aggregation, the value is a more qualitative measure of the stability of the Aβ-CLC aggregates. Samples of aggregates were stored at −80° C. after snap-freezing of washed pellets. Reactions with CLC contained 10% DMSO from the CLC stock solution.
To confirm the microtiter plate assay, we carried out solution phase experiments using unlabelled Aβ(1-40). […] During the ThT lag phase, the amount of soluble, monomeric Aβ is reduced by about a factor of two, consistent with the formation of protofibrillar structures with low ThT response (2). In contrast, in the presence of 100 μM CLC, Aβ(1-40) is rapidly converted to a pelletable aggregate, so that within 1-2 hrs only 2-3 μM Aβ remains in solution after centrifugation (FIG. 3a,b); when these aggregates are isolated by sedimentation, they are found to contain a ratio of 4 moles of CLC per mole of Aβ(1-40) (results of independent analyses against both HPLC and MS standard curves). The significance of this ratio is not clear.

Aβ (1-42) = biological target: T4, Aβ (1-42) (Homo sapiens, UniProt P05067); settings: cited from earlier work
T4 construct: polymeric sheet intermediates using Aβ (1-42) and a compound Ro 90-7501

[2] = biological target: CLC-Aβ(1-40) aggregates (stabilized Aβ protofibrillar aggregates made with calmidazolium chloride); assay: solution phase aggregation with 100 µM CLC; HPLC of centrifugation supernatants
[3] = stimulation of Aβ deposition, microplate assay, read-out: EC50

T3 sequence (P05067 672-711): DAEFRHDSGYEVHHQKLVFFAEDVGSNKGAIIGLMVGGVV
T2 sequence (P05067 672-711 limits assumed): as the sequence (P05067 672-711) above
T1 sequence (P05067 672-711): as above
T4 sequence (P05067 672-713): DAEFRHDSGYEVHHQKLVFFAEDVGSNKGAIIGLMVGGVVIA

Molecule | Initial stimulation observed [1] [%] | pEC50 [1, 3] | Activity in enhancing aggregate formation (Aβ) | also measured
CCCCCCCCCOc1ccc2[nH]cc(CCN)c2c1.O=C(O)C(=O)O [5-(nonyloxy)-tryptamine hydrogen oxalate] | 136 | – | – | pEC50 [1]: ≤ 4.52
N=C(N)NC(=O)c1nc(Cl)c(N)nc1N [Amiloride HCl, amiloride HCl] | 96 | ≤ 4.41 | sub-optimal activity | –
Clc1ccc(C(c2ccc(Cl)cc2)n2cc[n+](CC(OCc3ccc(Cl)cc3Cl)c3ccc(Cl)cc3Cl)c2)cc1 (stereo not shown) [Calmidazolium chloride, calmidazolium chloride] | 598 | ≤ 4.67 | potent stabilizing compound | Stimulation of Aβ deposition compared to the elongation reaction in the absence of added compound ([1]; at 100 μM): about six; Concentrations at which deposition is stimulated (dose response) ([1]; deposition of 10 nM Aβ): 10 to 100 µM; ThT signal relative to the same weight of mature amyloid fibrils (Aβ(1-40); 100 μM CLC, after 14 days): about 20%; Aβ remaining in solution after centrifugation (Aβ(1-40); 100 μM CLC, within 1-2 hrs): 2 to 3 µM
C[C@](N)(Cc1ccc(O)c(O)c1)C(=O)O [L-α-methyl DOPA] | 127 | ≤ 4.47 | – | –
CCCCCCCCCCCCC(=O)N1CCCCC1CNC(=O)C(N)CCCCN (stereo not shown) [NPC15437] | 149 | < 4.57 | sub-optimal activity | –
COc1ccccc1N1CCN(CC(O)COc2cccc3ccccc23)CC1 (stereo not shown) [Naftopidil dihydrochloride, naftopidil dihydrochloride] | 150 | ≤ 4.44 | – | –
NC(=Nc1ccccc1)NC(=O)c1nc(Cl)c(N)nc1N [Phenamil methane sulfonate, phenamil methane sulfonate] | 242 | ≤ 4.45 | sub-optimal activity | –
Nc1ccc(-c2nc3ccc(-c4nc5ccc(N)cc5[nH]4)cc3[nH]2)cc1 [Ro 90-7501] | – | – | – | Effect on formation of mature fibrils (Aβ (1-42)): retarded but did not block formation of mature fibrils
P4: tetra-substituted Aβ(1-40) mutant with prolines at positions 9, 23, 30 and 37, SEQ ID NO:34 (DAEFRHDSPYEVHHQKLVFFAEPVGSNKGPIIGLMVPGVV; Amyloid-beta protein 40; UniProt P05067 672-711, looked up, variant G9P D23P A30P G37P) | – | – | – | Stability of amyloid fibrils (Aβ(1-40); scanning proline mutagenesis): same stability as wild type Aβ(1-40); Stability of CLC aggregates (Aβ(1-40); scanning proline mutagenesis, 100 μM CLC): significantly destabilized compared to WT
WT Aβ(1-40): wild type Aβ(1-40) peptide, SEQ ID NO:1 | – | – | – | Cr value, protofibril formation (Aβ(1-40); CLC-induced aggregation): 1.6 µM; Cr value, fibril formation (Aβ(1-40); amyloid fibril growth): 0.8 µM
wild type Aβ(1-40) (disaggregated, monomeric) (peptide) | – | – | – | Cr (concentration of Aβ in solution when it stops changing with time) [2]: 1.6 µM
